Consider 10 compounds from ChEMBL document CHEMBL1201862, “PubChem BioAssay data set” (2004).

Structures are written as SMILES.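 Following 48 hours of exposure in 96-well plates, responses at five concentrations were used to interpolate endpoints linearly. GI50 = concentration required for 50% inhibition of growth.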 Active and inactive are the calls of the source. Rule as the data show it: active = GI50 up to about 1.1 µM and inactive = higher.

What all share (assay): inhibition of tumour cell growth, NCI panel, 48 h
Assay [1] concerns MDA-MB-435.
Assay [2] deals with COLO 205.
The subject of assay [3] is UO-31.
Assay [4] relates to NCI-H23.
The subject of assay [5] is NCI/ADR-RES.
In assay [6] the test system is K562.
Assay [7] deals with MCF7.
In assay [8] the test system is IGROV-1.
Assay [9] has as its system RXF 393.
The subject of assay [10] is OVCAR-4.
Assay [11] has as its system NCI-H522.
The test system of assay [12] is OVCAR-5.
The subject of assay [13] is SK-MEL-28.
Assay [14] deals with SK-OV-3.
In assay [15] the test system is SF-268.
The subject of assay [16] is M14.
Assay [17] concerns HCT-15.
For assay [18], the system named is U-251.
The test system of assay [19] is HCT-116.
Assay [20] relates to Malme-3M.

Turning to `COc1ccc2cc(C(=O)CCC(=O)O)ccc2c1`, the GI50 in assay [1], in assay [2], in assay [3], in assay [4], in assay [5] and in assay [6] was > 100 µM (inactive) in each case. Also, the GI50 in assay [7], in assay [8], in assay [9], in [10], in [11] and in assay [12] was > 100 µM (inactive) each time. Besides, the GI50 in assay [13] was > 100 µM (inactive); in assay [14], > 100 µM (inactive); in assay [15], > 100 µM (inactive); in [16] it was > 100 µM (inactive); in assay [17] it was > 100 µM; in assay [18] it was > 100 µM (inactive). The GI50 in assay [19] and in [20] was > 100 µM (inactive) each time.

For the compound `CC(C)C(=O)[C@@]1(C)SC[C@H]2CCN=C21`, the GI50 is 25.1 µM (inactive) in assay [1]; > 100 µM (inactive) in assay [2]; 58.6 µM (inactive) in [3]; > 100 µM (inactive) in assay [4]; > 100 µM (inactive) in assay [5]; > 100 µM (inactive) in assay [6]. For the same compound, the GI50 is > 100 µM (inactive) in assay [7]; > 100 µM (inactive) in assay [8]; 3.52 µM (inactive) in assay [9]; 74.6 µM (inactive) in [10]; 52 µM (inactive) in assay [11]; > 100 µM (inactive) in assay [12]. Further, the GI50 in assay [13] is > 100 µM (inactive); in assay [14], > 100 µM (inactive); in [16], 71 µM (inactive); in [17], > 100 µM; in [19] it was > 100 µM (inactive); in [20], 46.7 µM (inactive).

In the case of `Fc1ccc2nc3n(c2c1)C(c1c(Cl)cccc1Cl)SC3` (stereo not given), the GI50 in assay [1], in assay [2], in assay [3], in assay [4], in assay [5] and in [7] was > 100 µM (inactive) each time. Besides, the GI50 in assay [8] is > 100 µM (inactive); in assay [9], > 100 µM (inactive); in assay [10], > 100 µM (inactive); in [11], 29.4 µM (inactive); in [12], > 100 µM (inactive); in assay [13], > 100 µM (inactive). Further, the GI50 was > 100 µM (inactive) in assay [14]; > 100 µM (inactive) in assay [15]; > 100 µM (inactive) in assay [16]; > 100 µM in [17]; > 100 µM (inactive) in [18]; > 100 µM (inactive) in assay [19]. Besides, in [20], the GI50 was > 100 µM (inactive).

As to `CC(C(=O)OCc1ccccc1)(c1ccco1)N1C(=O)OC(c2ccccc2)C1c1ccccc1` (stereo not given), the GI50 in [1] was > 100 µM (inactive); in [2], > 100 µM (inactive); in assay [3], 6.34 µM (inactive); in assay [4], > 100 µM (inactive); in assay [5], > 100 µM (inactive); in assay [6], 7.18 µM (inactive). Also, the GI50 in [7], in assay [8], in assay [9], in assay [10], in [11] and in assay [12] was > 100 µM (inactive) each time. Further, the GI50 in assay [13] was > 100 µM (inactive); in assay [14], > 100 µM (inactive); in assay [15] it was > 100 µM (inactive); in assay [16], > 100 µM (inactive); in assay [17], > 100 µM; in assay [18] it was > 100 µM (inactive). The GI50 in [19] and in assay [20] was > 100 µM (inactive) in each case.

Turning to `Cc1nc2ccccc2c(=O)n1/N=C(\N=N\c1cc(Cl)ccc1Cl)c1ccccc1`, the GI50 was 21.3 µM (inactive) in assay [1]; 61.1 µM (inactive) in [2]; 22.9 µM (inactive) in assay [3]; 50.7 µM (inactive) in [4]; 26.6 µM (inactive) in assay [5]; > 100 µM (inactive) in [6]. Besides, the GI50 in assay [7] is 8.04 µM (inactive); in assay [8] it was 44.6 µM (inactive); in [9], 63.5 µM (inactive); in assay [10], 51.8 µM (inactive); in assay [11] it was 29.9 µM (inactive); in assay [12], > 100 µM (inactive). Besides, the GI50 in assay [13] is 47.2 µM (inactive); in assay [14] it was > 63 µM (inactive); in assay [15] it was 58.6 µM (inactive); in assay [16], 54.7 µM (inactive); in assay [17], 31.2 µM; in [18], 27.1 µM (inactive). Besides, the GI50 in assay [19] is 17.4 µM (inactive); in assay [20], 41 µM (inactive).

On to `COC(=O)C1CC23C=CCN4CC(C2C)C2(c5ccccc5NC12)C43` (stereo not given), for which the GI50 in assay [1], in assay [2], in assay [4], in assay [5], in [6] and in assay [7] was > 100 µM (inactive) in each case. In addition, the GI50 in assay [8], in assay [9], in assay [10], in [11], in assay [12] and in assay [13] was > 100 µM (inactive) each time. The GI50 is > 100 µM (inactive) in assay [14]; > 100 µM (inactive) in [15]; > 100 µM (inactive) in [16]; > 100 µM in [17]; > 100 µM (inactive) in assay [18]; > 100 µM (inactive) in assay [19]. The GI50 in assay [20] is > 100 µM (inactive).

Consider `CC(=O)Nc1ccc(S(=O)(=O)/N=C2\C=CC(=O)c3ccccc32)cc1`, for which the GI50 in assay [1] was 1.84 µM (inactive); in [2] it was 13.3 µM (inactive); in [3] it was 7.48 µM (inactive); in assay [4] it was 4.22 µM (inactive); in [5], 5.9 µM (inactive); in assay [6], 2.57 µM (inactive). In addition, the GI50 is 5.01 µM (inactive) in assay [7]; 2.58 µM (inactive) in assay [8]; 6.38 µM (inactive) in [9]; 1.87 µM (inactive) in assay [10]; 14.5 µM (inactive) in assay [11]; 8.55 µM (inactive) in assay [12]. Further, the GI50 is 10.5 µM (inactive) in [13]; 16.5 µM (inactive) in [14]; 8.02 µM (inactive) in [15]; 4.44 µM (inactive) in assay [16]; 7.62 µM in assay [17]; 5.81 µM (inactive) in [18]. The GI50 is 5.24 µM (inactive) in assay [19] and 3.65 µM (inactive) in assay [20].

As for `CCN(CC)CCCNc1nc(=O)[nH]c(C)c1C(=O)Nc1c2ccccc2nc2ccccc12`, the GI50 is 5.21 µM (inactive) in [1]; 8.79 µM (inactive) in assay [2]; 5.6 µM (inactive) in assay [3]; 7.53 µM (inactive) in assay [4]; 12.9 µM (inactive) in assay [5]; 4.75 µM (inactive) in assay [6]. For the same compound, the GI50 is 7.78 µM (inactive) in assay [7]; 6.85 µM (inactive) in assay [8]; 27 µM (inactive) in assay [9]; 3.96 µM (inactive) in assay [10]; 3.63 µM (inactive) in assay [11]; 36.2 µM (inactive) in [12]. The GI50 in assay [13] is 12.3 µM (inactive); in assay [14] it was 10.8 µM (inactive); in [16], 15.5 µM (inactive); in [17], 4.8 µM; in assay [18], 12.6 µM (inactive); in assay [19], 5.41 µM (inactive). Also, the GI50 in assay [20] was 7.87 µM (inactive).

For `Cn1cc(-c2ccc(CCOC3CCCCO3)cc2)c2c(C#N)cccc21` (stereo not given), the GI50 in assay [1] was 36.9 µM (inactive); in [2] it was 27 µM (inactive); in assay [3], 28 µM (inactive); in assay [4], 48.3 µM (inactive); in assay [5], 30.9 µM (inactive); in assay [6] it was 22.9 µM (inactive). Further, the GI50 was 38.3 µM (inactive) in assay [7]; > 100 µM (inactive) in assay [8]; 45.3 µM (inactive) in assay [9]; 31.8 µM (inactive) in assay [10]; > 100 µM (inactive) in assay [11]; > 100 µM (inactive) in assay [12]. The GI50 in assay [13] is 14.9 µM (inactive); in [14] it was > 100 µM (inactive); in assay [15], > 100 µM (inactive); in assay [16], 37.8 µM (inactive); in [17] it was 16.6 µM; in assay [18] it was 28.6 µM (inactive). Also, the results for the GI50 in assay [19] and in assay [20] were 43.3 µM (inactive) and 83 µM (inactive), respectively.

Take `COC(=O)c1nc(Cl)nc(Cl)c1Cl`: the GI50 in [1] is 15.8 µM (inactive); in assay [2] it was 18.6 µM (inactive); in assay [3], 19.2 µM (inactive); in [4] it was 44.7 µM (inactive); in assay [5], 33.8 µM (inactive); in assay [6] it was 12.2 µM (inactive). For the same compound, the GI50 was 28.2 µM (inactive) in [7]; 22.8 µM (inactive) in assay [8]; 14.4 µM (inactive) in assay [9]; 19.5 µM (inactive) in assay [10]; 19.3 µM (inactive) in assay [11]; 23.5 µM (inactive) in assay [12]. For the same compound, the GI50 is 21.1 µM (inactive) in assay [13]; 41.9 µM (inactive) in assay [14]; 19.1 µM (inactive) in [15]; 20.7 µM (inactive) in assay [16]; 21.9 µM in assay [17]; 26.1 µM (inactive) in [18]. In addition, the GI50 was 18.2 µM (inactive) in assay [19] and 20.8 µM (inactive) in assay [20].
